Reference: US10329324B2 (viDA Therapeutics Inc., priority 2013, dated 2019)
Counter-ions that a name gives are not always drawn.

Target: T1, human Granzyme B (hGzmB) (Homo sapiens, UniProt P10144)
T1 construct: purchased Froelich Lab, Northshore University Health Systems Research Institute, Evanston, Ill., USA
Experiment: Human Granzyme B enzymatic inhibition assay (fluorogenic, kinetic)
Assay type: biochemical
Details: activity codes, Table 7; read-out: IC50 Activity Range
Protocol: A specific 2× assay buffer was prepared for the enzyme to be tested (see Table 2 for final 1× assay buffer compositions). If the assay buffer included DTT, it was added immediately prior to running the assay. A 2× enzyme mix was prepared (see Table 3 for enzyme assay conditions) at 80 uL per well. Compounds were screened at one or two appropriate concentrations (to determine the percent inhibition at those concentrations) and/or a full dose response curve (typically 8 points, to identify the IC50) in duplicate, triplicate, or higher replicates as needed. An appropriate control was also assessed in full dose response, in duplicate for each assay/plate. Background control wells consisted of 1× assay buffer, DMSO (5% v/v) and substrate. Positive control wells consisted of enzyme, DMSO (5% v/v) and substrate. Test compounds and control compounds were diluted in DMSO to […] the final desired concentration. For example, a test compound may be tested in dose response, in serial, tripling dilution condition starting at 20 uM and ending at 9.1 nM (or any appropriate concentration range and dilution scheme). Control compounds were prepared similarly. Diluted compounds were prepared in a dilution plate and transferred to the reaction plate (96-well medium binding plate (Greiner Bio-One FLUOTRAC™)) to allow for the desired final concentrations when added to the enzyme with AB. After mixing, the reaction plate was placed on a shaker (at 300 RPM) for 5 min, followed by incubation (covered) on the bench, for 20 min. Plates were warmed to reaction temperature (see Table 3) for a total incubation time of 30 min. Plates so prepared were ready for addition of substrate and the subsequent reaction.
(§1) An appropriate substrate for each assay was prepared in advance at 2× the final desired concentration (see Table 2) in DMSO. The appropriate substrate mix was added to each appropriate well on the reaction plate, and the plate was read immediately in the TECAN plate reader (TECAN INFINITE® M1000 Pro), set to the correct wavelength as needed for each assay (see Table 3) using 25 cycles, kinetic interval of 1 min, number of reads per well of 20 with shaking set to 1 s, double orbital, 2 mm amplitude. For fluorescent assays the gain was set to optimal (50%).
An in vitro fluorogenic detection assay for assessing the IC50 and/or percent inhibition at a given concentration of inhibitors against human Granzyme B (hGzmB) enzyme was performed as described in Example D1. When appropriate, percent inhibition data was collected and fitted to generate IC50 data using GraphPad Prism 5 (GraphPad Software, La Jolla Calif. USA, www.graphpad.com) and its non-linear regression analysis tools or other equivalent tools. […]
as §1, with “5)” for “2)”, “assay buffer. 30 uL of the” for “DMSO. The”, “6)” for “3)”, “15” for “25”, “(100% with gain regulation) for all assays except human GzmB which was set to 85 (with the z set at 23000 um).” for “(50%).”
An in vitro fluorogenic detection assay for assessing the IC50 and/or percent inhibition at a given concentration of inhibitors against human Granzyme B (hGzmB) enzyme was performed as described in Example D5. When appropriate, percent inhibition data was collected and fitted to generate IC50 data using GraphPad Prism 5 (GraphPad Software, La Jolla Calif. USA, www.graphpad.com) and its non-linear regression analysis tools or other equivalent tools.

T1 sequence (P10144 21-247): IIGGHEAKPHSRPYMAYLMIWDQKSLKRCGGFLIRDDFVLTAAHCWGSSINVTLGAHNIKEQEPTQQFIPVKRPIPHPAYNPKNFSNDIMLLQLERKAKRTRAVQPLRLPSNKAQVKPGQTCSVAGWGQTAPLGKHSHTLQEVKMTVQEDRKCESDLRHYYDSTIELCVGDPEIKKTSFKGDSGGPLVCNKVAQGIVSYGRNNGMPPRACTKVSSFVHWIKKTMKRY

Row | IC50 | SMILES
1 | 1 to 10 µM | CC[C@H](C)[C@H](NC(=O)Cc1ccccc1)C(=O)NCC(=O)N1c2ccccc2CCC1C(=O)NCc1c[nH]nn1 (mixture of isomers) [Example B5, (2S)-1-{2-[(2S,3S)-3-Methyl-2-(2-Phenylacetamido)Pentanamido]Acetyl}-N-(1H-1,2,3-Triazol-4-Ylmethyl)-1,2,3,4-Tetrahydroquinoline-2-Carboxamide]
2 | 0.1 to 1 µM | CC[C@H](C)[C@H](NC(=O)Cc1ccccc1)C(=O)NCC(=O)N1c2ccc(C)cc2CC1C(=O)NCc1c[nH]nn1 (mixture of isomers) [Example B7, 5-Methyl-1-{2-[(2S,3S)-3-Methyl-2-(2-Phenylacetamido)Pentanamido]Acetyl}-N-(1H-1,2,3-Triazol-4-Ylmethyl)-2,3-Dihydro-1H-Indole-2-Carboxamide]
3 | < 0.1 µM | CC[C@H](C)[C@H](NC(=O)C1CCCC1C(=O)O)C(=O)NCC(=O)N1c2ccccc2C[C@H]1C(=O)NCc1nn[nH]n1 (single isomer, unassigned) [Example A57-2]

Second part, the compound before the results:

Row | SMILES | IC50
4 | CC(C)(F)C(NC(=O)Cc1ccccc1)C(=O)NCC(=O)N1c2ccccc2C[C@H]1C(=O)NCc1nn[nH]n1 (mixture of isomers) [Example A41, (2S)-1-{2-[3-Fluoro-3-Methyl-2-(2-Phenylacetamido)Butanamido]Acetyl}-N-(2H-1,2,3,4-Tetrazol-5-Ylmethyl)-2,3-Dihydro-1H-Indole-2-Carboxamide] | > 10 µM
5 | CC[C@H](C)[C@H](NC(=O)C1CCCC1C(=O)O)C(=O)NCC(=O)N1c2ccccc2C[C@H]1C(=O)NCc1nn[nH]n1 (single isomer, unassigned) [Example A57-1] | < 0.1 µM
6 | CC[C@H](C)[C@H](NC(=O)CCCCC(=O)O)C(=O)NCC(=O)N1c2ccccc2C[C@H]1C(=O)NCc1nn[nH]n1 [Example A5, 5-{[(1S,2S)-2-Methyl-1-({2-Oxo-2-[(2S)-2-[(2H-1,2,3,4-Tetrazol-5-Ylmethyl)Carbamoyl]-2,3-Dihydro-1H-Indol-1-Yl]Ethyl}Carbamoyl)Butyl]Carbamoyl}Pentanoic Acid] | < 0.1 µM
7 | CC[C@H](C)[C@H](NC(=O)Cc1cccc(N)c1)C(=O)NCC(=O)N1c2ccccc2C[C@H]1C(=O)NCc1nn[nH]n1 [Example A9, (2S)-1-{2-[(2S,3S)-2-[2-(3-Aminophenyl)Acetamido]-3-Methylpentanamido]Acetyl}-N-(2H-1,2,3,4-Tetrazol-5-Ylmethyl)-2,3-Dihydro-1H-Indole-2-Carboxamide Hydrochloride] | 0.1 to 1 µM
8 | O=C(Cc1ccccc1)N[C@H](C(=O)NCC(=O)N1c2ccccc2C[C@H]1C(=O)NCc1nn[nH]n1)C1CCCCC1 [Example A11, (2S)-1-{2-[(2S)-2-Cyclohexyl-2-(2-Phenylacetamido)Acetamido]Acetyl}-N-(2H-1,2,3,4-Tetrazol-5-Ylmethyl)-2,3-Dihydro-1H-Indole-2-Carboxamide] | 1 to 10 µM
9 | CC[C@H](C)[C@H](NC(=O)CC(C)CC(=O)O)C(=O)NCC(=O)N1c2ccccc2C[C@H]1C(=O)NCc1nn[nH]n1 (stereo partly drawn) [Example A17, 3-Methyl-4-{[(1S,2S)-2-Methyl-1-({2-Oxo-2-[(2S)-2-[(2H-1,2,3,4-Tetrazol-5-Ylmethyl)Carbamoyl]-2,3-Dihydro-1H-Indol-1-Yl]Ethyl}Carbamoyl)Butyl]Carbamoyl}Butanoic Acid] | < 0.1 µM
10 | CC[C@H](C)[C@H](NC(=O)[C@H](C)CC(=O)OC)C(=O)NCC(=O)N1c2ccccc2C[C@H]1C(=O)NCc1nn[nH]n1 [Example A29, Methyl (3R)-3-Methyl-3-{[(1S,2S)-2-Methyl-1-({2-Oxo-2-[(2S)-2-[(2H-1,2,3,4-Tetrazol-5-Ylmethyl)Carbamoyl]-2,3-Dihydro-1H-Indol-1-Yl]Ethyl}Carbamoyl)Butyl]Carbamoyl}Propanoate] | 0.1 to 1 µM
11 | CC[C@H](C)[C@H](NC(=O)C1=C(C(=O)O)CCCC1)C(=O)NCC(=O)N1c2ccccc2C[C@H]1C(=O)NCc1nn[nH]n1 [Example A31] | < 0.1 µM
12 | CC[C@H](C)[C@H](NC(=O)[C@@H](O)[C@H](O)C(=O)O)C(=O)NCC(=O)N1c2ccccc2C[C@H]1C(=O)NCc1nn[nH]n1 [Example A33, (2S,3S)-2,3-Dihydroxy-3-{[(1S,2S)-2-Methyl-1-({2-Oxo-2-[(2S)-2-[(2H-1,2,3,4-Tetrazol-5-Ylmethyl)Carbamoyl]-2,3-Dihydro-1H-Indol-1-Yl]Ethyl}Carbamoyl)Butyl]Carbamoyl}Propanoic Acid] | < 0.1 µM
13 | CC[C@H](C)[C@H](NC(=O)Cc1cccc(CC(=O)O)c1)C(=O)NCC(=O)N1c2ccccc2C[C@H]1C(=O)NCc1nn[nH]n1 [Example A35, 2-[3-({[(1S,2S)-2-Methyl-1-({2-Oxo-2-[(2S)-2-[(2H-1,2,3,4-Tetrazol-5-Ylmethyl)Carbamoyl]-2,3-Dihydro-1H-Indol-1-Yl]Ethyl}Carbamoyl)Butyl]Carbamoyl}Methyl)Phenyl]Acetic Acid] | < 0.1 µM
14 | CC[C@H](C)[C@H](NC(=O)/C=C/C(=O)O)C(=O)NCC(=O)N1c2ccccc2C[C@H]1C(=O)NCc1nn[nH]n1 [Example A36, (2E)-3-{[(1S,2S)-2-Methyl-1-({2-Oxo-2-[(2S)-2-[(2H-1,2,3,4-Tetrazol-5-Ylmethyl)Carbamoyl]-2,3-Dihydro-1H-Indol-1-Yl]Ethyl}Carbamoyl)Butyl]Carbamoyl}Prop-2-Enoic Acid] | < 0.1 µM

System: not listed separately
Experiment: Kinetic solubility determination in PBS
Assay type: physicochemical
Details: PBS 1X pH 7.4, 2.0% DMSO, 24 hour incubation at ambient temperature
Protocol: Kinetic solubility buffer (phosphate buffered saline (PBS, 1×) at pH 7.4) was prepared from PBS (10×) solution, (Fisher Scientific, Pittsburgh, Pa., USA, 10×), by adding PBS (50 mL, 10×) to approximately water (450 mL HPLC grade). The volume of the solution was then adjusted to 500 mL for a total dilution factor of 1:10 and a final PBS concentration of 1×. The pH of the final solution (PBS (1×)) was measured and found to be 7.4.
A DMSO stock solution (typically 10 mM or greater) was used for each compound to be tested. A final DMSO concentration of 2.0% and maximum theoretical compound concentration of typically 200 μM (or greater) was achieved by diluting an aliquot (6 μl) of each stock with kinetic solubility buffer (294 μl, PBS (1×) at pH 7.4) using a liquid handling system (Hamilton STARlet, Hamilton Robotics, Inc., Reno, Nev., USA) and incubated directly in a solubility filter plate (Millipore, Billerica, Mass., USA). Following 24 hour incubation at ambient temperature (20.5-21.7° C.), each sample was vacuum filtered. The filtrate was injected into the chemiluminescent nitrogen detector for quantification (Automated Discovery Workstation, Analiza, Inc., Cleveland, Ohio, USA). Each result was reported both in μM and μg/mL units. Three separate on-board performance indicating standards were assayed in triplicate with each test compound to ensure test results were within the acceptable range.
The equimolar nitrogen response of the detector was calibrated using standards which spanned the dynamic range of the instrument from 0.08 to 4500 μg/ml nitrogen. Each filtrate was quantified with respect to this calibration curve. Each calculated solubility value was corrected for background nitrogen present in the DMSO, and buffer used to prepare each sample. All reported values for samples containing adjacent nitrogen atoms in a ring structure were corrected for the expected non-equimolar response. Each calculated solubility result assumed that each sample was free of nitrogen containing impurities and was stable under the assay conditions. Analyses were performed at Analiza Inc. (Cleveland, Ohio, USA) by published methods (Bhattachar, S. N., et al, J. Pharma. BioMed Anal. 41:152-7 2006).

Row | Solubility in aqueous PBS Buffer (1X, pH 7.4), uM | Solubility in aqueous PBS Buffer (1X, pH 7.4), ug/mL | SMILES
15 | 4.2-4.9 uM | 2.6-3.0 ug/mL | CC[C@H](C)[C@H](NC(=O)Cc1csc2ccccc12)C(=O)N[C@H]1CCc2cccc3c2N(C1=O)[C@H](C(=O)NCc1c[nH]nn1)C3 [Willoughby 20, reference compound]

Same assay, conditions: phosphate buffered saline (PBS 1×), 21 °C, pH 7.4, aqueous buffer, kinetic from dmso stock, PBS 1X pH 7.4, 2.0% DMSO, 24 hour incubation at ambient temperature, read-out: Solubility in aqueous PBS Buffer (1X, pH 7.4)

Row | solubility at 24 h | SMILES
16 | 12.6 µM | CC[C@H](C)[C@H](NC(=O)Cc1ccccc1)C(=O)NCC(=O)N1c2ccccc2C[C@H]1C(=O)NCc1csnn1 [Example B2, (2S)-1-{2-[(2S,3S)-3-Methyl-2-(2-Phenylacetamido)Pentanamido]Acetyl}-N-(1,2,3-Thiadiazol-4-Ylmethyl)-2,3-Dihydro-1H-Indole-2-Carboxamide]

Same assay, conditions: phosphate buffered saline (PBS 1×), 21 °C, pH 7.4, aqueous buffer, kinetic from dmso stock, PBS 1X pH 7.4, 2.0% DMSO, 24 hour incubation at ambient temperature, read-out: Solubility in aqueous PBS Buffer (1X, pH 7.4), ug/mL

Row | solubility at 24 h | SMILES
17 | 8.4 µg/mL | CC[C@H](C)[C@H](NC(=O)Cc1ccccc1)C(=O)NCC(=O)N1c2ccccc2C[C@H]1C(=O)NCc1csnn1 [Example B2, (2S)-1-{2-[(2S,3S)-3-Methyl-2-(2-Phenylacetamido)Pentanamido]Acetyl}-N-(1,2,3-Thiadiazol-4-Ylmethyl)-2,3-Dihydro-1H-Indole-2-Carboxamide]
